Data reported in PubChem BioAssay AID977624 (Broad Institute, 2014).
Results filed as inconclusive are left out. The source made the active and inactive calls.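 Rule for the calls: active = compound lowering the normal-ribosome reporter at least twice as much as the humanized-ribosome reporter, growth loss under a set limit; inconclusive = no clear call, values can overlap the other calls; inactive = the rest.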

The molecules below were run on E. coli wild-type GFP strain growth, fluorescence, 24 h (assay: growth inhibition of wild-type GFP E. coli, dose response, h34 mutant RFP, cherry-pick (AID 977624);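 note: wild-type GFP strain co-cultured with humanized h34 ribosome RFP strain in same well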).

Structure (SMILES)	AC50
CCCCC(=O)N1CCN(c2nc3ccc(Br)cc3s2)CC1	> 100 µM (inactive)
O=C(c1cc(C(=O)N2CCOCC2)c2nc3ccccc3n2c1)c1cc(Cl)cc(Cl)c1O	> 100 µM (inactive)
CCOc1ccc(S(=O)(=O)Nc2ccc(S(=O)(=O)N3CCCC3)cc2)cc1	> 100 µM (inactive)
COc1ccc(-c2csc(NC(=O)CC(NC(C)=O)c3ccccc3)n2)cc1OC (configuration not stated)	> 100 µM (inactive)
COc1ccc(C(=O)NCCc2ccccn2)cc1S(=O)(=O)Nc1ccc(Br)cc1	> 100 µM (inactive)
CC1=Nc2cc(C(=O)NCC3CCCO3)ccc2Sc2ccc(Br)cc21 (configuration not stated)	> 100 µM (inactive)
COc1ccc(CNC(=O)Cc2cn(C)c3ccccc23)c(OC)c1	> 100 µM (inactive)
O=C(Nc1ccc(C(=O)Nc2ccccc2Cl)cc1)c1cccnc1	> 100 µM (inactive)
O=C(O)CC1(CC(=O)NCc2ccc(-c3cccs3)cc2)CCCCC1	> 100 µM (inactive)
Fc1cccc(Cl)c1CSc1ccc(-c2ccco2)nn1	> 100 µM (inactive)
O=[N+]([O-])c1cccnc1N1CCN(c2ccc(F)cc2)CC1	> 100 µM (inactive)
COc1ccc(C(=O)Nc2ccc3oc(Cc4ccc(Cl)cc4)nc3c2)cc1OC	> 100 µM (inactive)
Cc1ccc(S(=O)(=O)Nc2ccccc2CNc2cccc(C)n2)cc1	> 100 µM (inactive)
CCc1cc2cc(OC)ccc2nc1SCC(=O)Nc1cc(OC)c(OC)cc1C(=O)O	> 100 µM (inactive)
Cc1cc(OCCCCOc2ccc(S(N)(=O)=O)c(C)c2)ccc1S(N)(=O)=O	> 100 µM (inactive)
COc1cc(NC(=O)CSCc2ccc(Cl)cc2Cl)c(C(=O)O)cc1OC	> 100 µM (inactive)
COc1ccccc1Cn1c(=S)[nH]c2ccc(F)cc2c1=O	> 100 µM (inactive)
NS(=O)(=O)c1cccc(NC(=O)CSc2nnc(-c3ccccc3F)n2C2CC2)c1	> 100 µM (inactive)
Cc1oc(-c2ccc(-c3ccccc3)cc2)nc1CN(C)C1CCOC1 (configuration not stated)	> 100 µM (inactive)
COC(=O)c1cccc(CN2C(=O)SC(Nc3ccc(C)cc3)C2=O)c1 (configuration not stated)	> 100 µM (inactive)
CCc1ccc(NC(=O)CCc2c(C)nn(-c3ccc(N4CCCCC4)nn3)c2C)cc1	> 100 µM (inactive)
CSc1ccccc1NC(=O)c1ccccc1N(Cc1ccccc1)S(C)(=O)=O	> 100 µM (inactive)
O=C(COC(=O)c1n[nH]c2ccccc12)Nc1cccc(S(=O)(=O)N2CCOCC2)c1	> 100 µM (inactive)

Structure (SMILES)	AC50
O=C(CSc1nc(C2CCCCC2)nc2ccccc12)N1CCCC1	> 100 µM (inactive)
Cc1cc(Br)ccc1SCC(=O)OCC(=O)NCc1ccco1	> 100 µM (inactive)
Cc1n[nH]c(C)c1Sc1ccccc1[N+](=O)[O-]	> 100 µM (inactive)
O=C(CCCn1c(=S)[nH]c2ccsc2c1=O)Nc1ccc2c(c1)OCCO2	> 100 µM (inactive)
COc1ccc(Br)c(-c2nc(CS(=O)(=O)c3ccc(F)cc3)no2)c1	> 100 µM (inactive)
NC(=O)c1nsc(C(=O)N(c2ccccc2F)C(C(=O)NCc2ccc(F)cc2)c2ccc(O)cc2)c1N (configuration not stated)	> 100 µM (inactive)
COc1ccc(Nc2nc(N)c([N+](=O)[O-])c(N3CCCC3)n2)cc1	> 100 µM (inactive)
COc1ccccc1-c1ccc(SCc2cccc(F)c2)nn1	> 100 µM (inactive)
O=C(O)CCN(Cc1ccccc1)S(=O)(=O)c1ccc(Cl)cc1F	> 100 µM (inactive)
O=S(=O)(c1ccccc1)N1C[C@@H]2[C@H](c3ccccc31)[C@H](CO)N2Cc1ccccc1	> 100 µM (inactive)
O=C(Cn1c2[n+](c3ccc(C(F)(F)F)cc31)CCCCC2)c1ccc2c(c1)OCCO2	> 100 µM (inactive)
Cc1ccc(C2NC(=O)c3[nH]nc(-c4ccccc4)c32)cc1 (configuration not stated)	> 100 µM (inactive)
CCOc1ccc(S(=O)(=O)N(C)c2ccc(OCC(=O)Nc3ccc4[nH]c(=O)[nH]c4c3)cc2)cc1	> 100 µM (inactive)
CC(=O)Nc1ccc(Nc2nc(C)c([N+](=O)[O-])c(N(C)c3ccccc3)n2)cc1	> 100 µM (inactive)
COc1ccc(-c2noc(=O)n2Cc2ccccc2Cl)cc1	> 100 µM (inactive)
O=C(Nc1ccc(S(=O)(=O)NC2=NCCCCC2)cc1)c1ccc([N+](=O)[O-])s1	> 100 µM (inactive)
COc1ccc(-c2ccc3ccccc3n2)cc1OC	> 100 µM (inactive)
C[C@@H]1CN([C@H](C)CO)C(=O)c2cccc(NC(=O)c3ccncc3)c2O[C@@H]1CN(C)S(=O)(=O)c1ccc(Cl)cc1	> 100 µM (inactive)
Cc1csc(SCc2nc3scc(-c4ccccc4)c3c(=O)[nH]2)n1	> 100 µM (inactive)
CN1CCN(C(=O)C[C@H]2CC[C@@H]3[C@H](COC[C@@H](O)CN3C(=O)Nc3ccc(Cl)cc3)O2)CC1	> 100 µM (inactive)
COC(=O)C(Cc1csc2ccc(Cl)cc12)NC(=O)c1ccc(Cl)cc1 (configuration not stated)	> 100 µM (inactive)
CS(=O)(=O)c1cccc(C(=O)Nc2cccc(-c3nc4ccccc4[nH]3)c2)c1	> 100 µM (inactive)
COc1ccc2nc(SCC(=O)Nc3ccccc3)[nH]c2c1	> 100 µM (inactive)

Structure (SMILES)	AC50
O=C(NCc1ccco1)c1ccc(COc2cccc3ccccc23)cc1	> 100 µM (inactive)
COC(=O)COc1ccc(Cl)cc1C1Nc2ccccc2C(=O)N1c1ccc(OC)cc1 (configuration not stated)	> 100 µM (inactive)
COC(=O)COc1ccc(S(=O)(=O)N2CCc3ccccc3C2)cc1C	> 100 µM (inactive)
Cc1c(C(=O)NCCSCc2cccc(C(F)(F)F)c2)cnn1-c1ccc(F)cc1	> 100 µM (inactive)
CC(OC(=O)CCc1nc2ccccc2c(=O)[nH]1)C(=O)c1ccc(Br)cc1 (configuration not stated)	> 100 µM (inactive)
CC(C)(CC(=O)O)CC(=O)NCc1c(Cl)cccc1Sc1ccc(Cl)cc1	> 100 µM (inactive)
COc1cc2c(cc1OC)C1(C)N(CC2)C(C(C)=O)=NN1c1ccc(Cl)cc1 (configuration not stated)	> 100 µM (inactive)
O=C(CN1CCc2ccccc2C1)Nc1ccc(F)cc1F	> 100 µM (inactive)
CC1CCN(CC(O)COCCC23CC4CC(CC(C4)C2)C3)CC1 (configuration not stated)	> 100 µM (inactive)
CC1(C)CC(=O)c2cnc(N3CCc4ccccc43)nc2C1	> 100 µM (inactive)
C=CCn1c(-c2cc3cccc(OC)c3o2)n[nH]c1=S	> 100 µM (inactive)
NC(=O)c1sc2nnc(-c3ccccc3)c(-c3ccccc3)c2c1N	> 100 µM (inactive)
COc1cccc2c1Oc1cc([N+](=O)[O-])cc(N(C)C(C)=O)c1C=C2	> 100 µM (inactive)
CC(Nc1ncnc2ccccc12)c1ccccc1 (configuration not stated)	> 100 µM (inactive)
O=S(=O)(NC1c2cccc3cccc(c23)C1Sc1ncccn1)c1ccccc1 (configuration not stated)	> 100 µM (inactive)
Cc1ccc(NC(=O)CCCSc2ccccc2)cc1S(=O)(=O)N1CCOCC1	> 100 µM (inactive)
CCN(CC)S(=O)(=O)c1ccc(O)c(C(=O)OCC(=O)NC23CC4CC(CC(C4)C2)C3)c1	> 100 µM (inactive)
N#Cc1ccsc1NC(=O)CSc1nnnn1-c1ccc(O)cc1	> 100 µM (inactive)
C=CCn1c(CCSCc2ccc(OC)c(C)c2)n[nH]c1=S	> 100 µM (inactive)
Cc1ccccc1OCC(O)Cn1c(NCc2ccco2)nc2c1c(=O)n(C)c(=O)n2C (configuration not stated)	> 100 µM (inactive)
Cc1ccc(NC(=O)C2CCN(S(=O)(=O)c3ccc4c(c3)NC(=O)CO4)CC2)cc1	> 100 µM (inactive)
